Laboratory results: US6239125A, “Azetidinone derivatives for the treatment of HCMV infections” (Boehringer Ingelheim (Canada) Ltd., priority 1998, dated 2001)
Where a name gives a salt, the structure may show the parent alone. Read-outs that look alike come from different tables or passages of the source. Non-standard residues stand in square brackets, D forms with d. Residues, ends and D or L forms follow the SMILES beside them. Tyr(3-NO2) = N[C@@H](Cc1ccc(O)c([N+](=O)[O-])c1)C(=O)O; 2Abz = Nc1ccccc1C(=O)O

Legend:
HCMV No protease [1] = target: T1, HCMV No protease (Human cytomegalovirus, UniProt P16753); test: HCMV No Protease Assay (fluorogenic substrate, IC50); format: biochemical; conditions: HCMV No protease 100 nM, substrate 5 μM, 2.5 h at 30°, pH 8; Table 1 and Table 2
Experimental: This particular assay determines the ability of a test compound to inhibit the activity (IC50) of HCMV protease. More specifically, in the assay described herein, the inhibitory activity of the test compound is evaluated on the basis of its ability to interfere with the HCMV No protease cleavage of a fluorogenic peptide substrate which in turn is based on the maturation cleavage site of the enzyme.
1. HCMV No Protease Assay
Material & Methods: Fluorescence measurements were recorded on a Perkin-Elmer LS-50B spectrofluorimeter equipped with a plate reader accessory. UV measurements were recorded on a Thermomax® microplate reader from Molecular Devices Corporation, Menlo Park, Calif., USA.
The fluorescence increase upon cleavage of the Ala-Ser amide bond was monitored using excitation λ=312 nm (slit 2.5 nm) and emission λ=415 nm ([…]). A protocol adaptable to a 96-well plate format was designed for the determination of IC50 values of inhibitors.
No quenching was required before fluorescence measurement since the total scanning time by the plate reader accessory was brief relative to the duration of the reaction. The aqueous incubation buffer contained 50 mM tris(hydroxymethyl)aminomethane-HCl pH 8, 0.5M Na2 SO4, 50 mM NaCl, 0.1 mM EDTA, 1 mM tris(2-carboxyethyl)phosphine.HCl, 3% v/v DMSO and 0.05% w/v casein. The final concentrations of HCMV No protease (expressed in terms of total monomer concentration) and substrate were 100 nM and 5 μM respectively. IC50 values were obtained through fitting of the inhibition curve to a competitive inhibition model using SAS NLIN procedure. The mode of inhibition was determined by measurements of the initial rates (in cuvettes) at various substrate concentrations in the buffer as described above.

[2] = test system: HCMV (strain AD169, ATCC VR-538); test: Plaque Reduction Assay (PRA), HCMV-infected Hs-68 cells; format: cell-based, human cytomegalovirus (HCMV)
Experimental: B. Plaque Reduction Assay (PRA): Hs-68 cells (ATCC # CRL 1635) were seeded in 12-well plates at 83,000 cells/well in 1 mL of DMEM medium (Gibco Canada Inc.) supplemented with 10% fetal bovine serum (FBS, Gibco Canada Inc.). The plates were incubated for 3 days at 37° to allow the cells to reach 80-90% confluency prior to the assay.
The medium was removed from the cells by aspiration. The cells were then infected with approximately 50 PFU of HCMV (strain AD169, ATCC VR-538) in DMEM medium supplemented with 5% inactivated FBS (assay medium). (DMEM medium is commercially available and has been described by R. Dulbecco et al., Virology 1959, 8, 396.) The virus was allowed to adsorb to cells for 2 h at 37°. Following viral adsorption, the medium was removed from the wells by aspiration. The cells were then incubated with or without 1 mL of appropriate concentrations of test reagent in assay medium. Occasionally, test compounds were added 24 h post-infection. After 4 days of incubation at 37°, the medium was exchanged with fresh medium containing test compound and 4 days later the cells were fixed with 1% aqueous formaldehyde and stained with a 2% violet solution in 20% ethanol in water. Microscopic plaques were counted using a stereomicroscope. Drug effects were calculated as a percent reduction in the number of plaques in the presence of each drug concentration compared to the number observed in the absence of drug. Ganciclovir was used as a positive control in all experiments.

[3] = Cytotoxic effects, tetrazolium salt (MTT) metabolic assay; format: cell-based; conditions: cytotoxicity, Table 1 and Table 2, read-out: TC50 (the source's name)
Experimental: Cytotoxic effects noted as TC50 in the following tables were determined according to the tetrazolium salt (MTT) metabolic assay, F. Denizot and F. Lang, J. Immun. Meth., 1986, 89, 271.

HCMV No protease [4] = target: T1, HCMV No protease; test: HCMV No Protease Assay (fluorogenic substrate, IC50); format: biochemical; conditions: fluorogenic substrate cleaved by HCMV No protease
[5] = Human betaherpesvirus 5, Hs68, plaque reduction, Hs-68 cells, HCMV strain AD169, Table 1 and Table 2, read-out: EC50

T1 sequence (P16753 1-256): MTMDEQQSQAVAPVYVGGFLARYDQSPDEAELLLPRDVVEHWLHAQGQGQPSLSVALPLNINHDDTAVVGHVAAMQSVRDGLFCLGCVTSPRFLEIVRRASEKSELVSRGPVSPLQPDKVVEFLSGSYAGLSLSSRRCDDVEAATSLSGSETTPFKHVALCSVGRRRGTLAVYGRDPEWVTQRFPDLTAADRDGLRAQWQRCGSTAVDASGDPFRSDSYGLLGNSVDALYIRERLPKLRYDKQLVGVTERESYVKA

In the case of `CN(C(=O)CC(CO[C@@H]1CC(=O)N1C(=O)NCc1ccccc1)NC(=O)CC(C)(C)C)C(C)(C)C` (stereo partly drawn) [Entry 205], the IC50 (HCMV No protease [1]) is reported as 5 µM, the EC50 [2, 5] is reported as > 250 µM and the CC50 [3] is reported as > 250 µM.

With `C[C@@H](NC(=O)N1C(=O)C[C@H]1Oc1ccc(Cl)cc1)c1ccccc1` [Entry 206] the IC50 (HCMV No protease [1]) was 1.6 µM.

For `CC(C)C[C@@H](CS[C@H]1CC(=O)N1C(=O)NCc1ccccc1)NC(=O)[C@@H](NC(=O)OC(C)(C)C)C(C)(C)C` [Entry 101], the IC50 (HCMV No protease [1]) was 0.4 µM, the EC50 [2, 5] was > 11 µM and the CC50 [3] was > 11 µM.

In the case of `C[C@@H](NC(=O)N1C(=O)C[C@@H]1SCC(=O)c1ccccc1)c1ccccc1` [Entry 112], the IC50 (HCMV No protease [1]) is reported as 1 µM, the EC50 [2, 5] is reported as > 37 µM and the CC50 [3] is reported as > 37 µM.

With `C[C@@H](NC(=O)N1C(=O)C[C@@H]1SCc1ccncc1)c1ccccc1` [Entry 109] the IC50 (HCMV No protease [1]) was 2.1 µM, the EC50 [2, 5] was 65 µM and the CC50 [3] was > 250 µM.

With `C[C@@H](NC(=O)N1C(=O)C[C@H]1SC[C@H](CCS(C)(=O)=O)NC(=O)[C@@H](NC(=O)OC(C)(C)C)C(C)(C)C)c1ccccc1` [Entry 106] the IC50 (HCMV No protease [1]) was 0.62 µM, the EC50 [2, 5] was 230 µM and the CC50 [3] was > 250 µM.

With `CC(C)C[C@@H](CO[C@@H]1CC(=O)N1C(=O)NCc1ccccc1)NC(=O)[C@@H](NC(=O)OC(C)(C)C)C(C)(C)C` [Entry 202] the IC50 (HCMV No protease [1]) was 1.3 µM, the EC50 ([2]; Human betaherpesvirus 5, AD169, Hs68) was 64 µM and the CC50 [3] was > 52 µM.

With `C[C@@H](NC(=O)N1C(=O)C[C@@H]1Oc1ccc(Cl)cc1)c1ccccc1` [Entry 207] the IC50 (HCMV No protease [1]) was 0.8 µM, the EC50 [2, 5] was 250 µM and the CC50 [3] was > 250 µM.

With `C[C@@H](NC(=O)N1C(=O)C[C@@H]1SCc1cccnc1)c1ccccc1` [Entry 110] the IC50 (HCMV No protease [1]) was 2 µM, the EC50 [2, 5] was 96 µM and the CC50 [3] was > 200 µM.

With `CC(C)C[C@@H](CO[C@H]1CC(=O)N1C(=O)N[C@H](C)c1ccccc1)NC(=O)[C@@H](NC(=O)OC(C)(C)C)C(C)(C)C` [Entry 203] the IC50 (HCMV No protease [1]) was 0.32 µM, the EC50 [2, 5] was > 49 µM and the CC50 [3] was > 49 µM.

For `C[C@@H](NC(=O)N1C(=O)C[C@@H]1[S+]([O-])c1ccccc1)c1ccccc1` (stereo partly drawn) [Entry 108], the IC50 (HCMV No protease [1]) was 4 µM.

With `C[C@@H](NC(=O)N1C(=O)C[C@@H]1Sc1ccccc1)c1ccccc1` [Entry 102] the EC50 [2, 5] was 40 µM and the CC50 [3] was > 100 µM.

For `C[C@@H](NC(=O)N1C(=O)C[C@@H]1SC[C@H](CCS(C)(=O)=O)NC(=O)[C@@H](NC(=O)OC(C)(C)C)C(C)(C)C)c1ccccc1` [Entry 105], the IC50 (HCMV No protease [1]) was 0.2 µM, the EC50 [2, 5] was 110 µM and the CC50 [3] was > 250 µM.

Molecule `C[C@@H](NC(=O)N1C(=O)C[C@@H]1SCc1ccccn1)c1ccccc1` [Entry 111] has an IC50 (HCMV No protease [1]) of 2.5 µM, an EC50 [2, 5] of 60 µM and a CC50 [3] of 180 µM.

With `CC[C@@H](NC(=O)N1C(=O)C[C@@H]1SC[C@H](CC(C)C)NC(=O)[C@@H](NC(=O)CC(C)(C)C)C(C)(C)C)c1ccccc1` [Entry 115] the IC50 (HCMV No protease [1]) was < 0.06 µM, the EC50 [2, 5] was > 250 µM and the CC50 [3] was > 250 µM.

In the case of `C[C@@H](NC(=O)N1C(=O)C[C@@H]1SCc1ccccc1)c1ccccc1` [Entry 103], the IC50 (HCMV No protease [1]) is reported as 12.4 µM, the EC50 [2, 5] is reported as > 5 µM and the CC50 [3] is reported as > 5 µM.

`COC(=O)[C@@H](C)O[C@@H]1CC(=O)N1C(=O)N[C@H](C)c1ccccc1` [Entry 209] showed an IC50 (HCMV No protease [1]) of 21.5 µM.

`C[C@@H](NC(=O)N1C(=O)C[C@@H]1OCCNC(=O)c1ccc(NC(=O)CC(C)(C)C)cc1)c1ccccc1` [Entry 208] gave an IC50 (HCMV No protease [1]) of 21 µM.

Work on `CC(C)C[C@@H](CO[C@@H]1CC(=O)N1C(=O)NCc1ccccc1)NC(=O)[C@@H](NC(=O)CC(C)(C)C)C(C)(C)C` [Entry 204] yielded an IC50 (HCMV No protease [1]) of 0.16 µM.

`C[C@@H](NC(=O)N1C(=O)C[C@H]1[S+]([O-])c1ccccc1)c1ccccc1` (stereo partly drawn) [Entry 107] gave an IC50 (HCMV No protease [1]) of 9 µM.

For `CC(C)C[C@@H](CO[C@@H]1CC(=O)N1C(=O)NCc1ccccc1)NC(=O)OC(C)(C)C` [Entry 201], the IC50 (HCMV No protease [1]) was 44 µM.

In the case of `CC(C)C[C@H](NC(=O)[C@H](CCCNC(=N)N)NC(=O)[C@H](CO)NC(=O)[C@H](CO)NC(=O)[C@H](C)NC(=O)[C@H](CC(N)=O)NC(=O)[C@@H](NC(=O)[C@@H](NC(=O)c1ccccc1N)C(C)C)C(C)C)C(=O)N[C@@H](Cc1ccc(O)c([N+](=O)[O-])c1)C(=O)N[C@@H](CCCNC(=N)N)C(=O)O` (H-[2Abz]VVNASSRL[Tyr(3-NO2)]R-OH), the “Kcat /KM” value (HCMV No protease [4]) is reported as 260 M⁻¹ s⁻¹.

With `C[C@@H](NC(=O)N1C(=O)C[C@@H]1SCCc1ccccc1)c1ccccc1` [Entry 104] the IC50 (HCMV No protease [1]) was 6.5 µM, the EC50 [2, 5] was > 4 µM and the CC50 [3] was > 4 µM.

For `O=C1C[C@H](SCc2ccccn2)N1C(=O)N[C@H](CO)c1ccccc1` [Entry 116], the IC50 (HCMV No protease [1]) was 3.6 µM.

Molecule `COC(=O)[C@H](C)O[C@H]1CC(=O)N1C(=O)N[C@H](C)c1ccccc1` [Entry 210] has an IC50 (HCMV No protease [1]) of 3.8 µM.

With `CC[C@@H](NC(=O)N1C(=O)C[C@@H]1SCc1ccccn1)c1ccccc1` [Entry 114, 4(S)-{(2-pyridinylmethyl)thio}azetidin-2-one-1-carboxylic acid (1(R)-phenylpropyl)amide hydrochloride] the IC50 (HCMV No protease [1]) was 1.2 µM, the EC50 [2, 5] was 80 µM and the CC50 [3] was > 200 µM.
